Measurements taken from the supplement of paper PMC13207355.

Tests used:
Settings in all cases: exposure time: 72 h
[1] = system: E13 (patient-derived glioblastoma stem cells of classical subtype); experiment: surviving fraction (nuclei count normalised to DMSO); higher = more cells surviving (less toxic)
[2] = system: E21 (patient-derived glioblastoma stem cells of mesenchymal subtype); experiment: as above
[3] = system: E28 (patient-derived glioblastoma stem cells of classical subtype); experiment: as above
[4] = system: E31 (patient-derived glioblastoma stem cells of proneural subtype); experiment: as above
[5] = system: E34 (patient-derived glioblastoma stem cells of proneural subtype); experiment: as above
[6] = system: E57 (patient-derived glioblastoma stem cells of mesenchymal subtype); experiment: as above
[7] = system: FT3469 (normal neural stem cell line); experiment: as above
[8] = system: E13; experiment: phenotypic distance (Euclidean, principal components) from DMSO controls (arbitrary units); higher = stronger morphological change
[9] = system: E21; experiment: as above
[10] = system: E28; experiment: as above
[11] = system: E31; experiment: as above
[12] = system: E34; experiment: as above
[13] = system: E57; experiment: as above
[14] = system: FT3469; experiment: as above
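Throughout, for phenotypic distance (Euclidean, principal components) from DMSO controls: cell Painting imaging in 384-well plates, CellProfiler features reduced to at least 20 principal components, Euclidean distance versus same-plate DMSO vehicle wells (0.1% v/v), median over six images per well.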
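Throughout, for surviving fraction (nuclei count normalised to DMSO): nuclei counted by high-content imaging of Hoechst-stained cells in laminin-coated 384-well plates, relative to 0.1% DMSO vehicle wells, with staurosporine as cell-death control.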

C[C@@H]1C[C@@H]([C@H](O)CC2CC(=O)NC(=O)C2)C(=O)[C@@H](C)C1 [Cycloheximide]
Settings	phenotypic distance	surviving fraction
[1], 4.1 nM	–	0.769
[1], 12.3 nM	–	0.713
[1], 37 nM	–	0.644
[1], 111.1 nM	–	0.654
[1], 333.3 nM	–	0.436
[1], 1000 nM	–	0.408
[1], 3000 nM	–	0.306
[2], 4.1 nM	–	0.753
[2], 12.3 nM	–	0.688
[2], 37 nM	–	0.532
[2], 111.1 nM	–	0.518
[2], 333.3 nM	–	0.443
[2], 1000 nM	–	0.356
[2], 3000 nM	–	0.305
[3], 4.1 nM	–	0.899
[3], 12.3 nM	–	0.76
[3], 37 nM	–	0.771
[3], 111.1 nM	–	0.592
[3], 333.3 nM	–	0.542
[3], 1000 nM	–	0.346
[3], 3000 nM	–	0.451
[4], 4.1 nM	–	0.854
[4], 12.3 nM	–	0.905
[4], 37 nM	–	0.703
[4], 111.1 nM	–	0.684
[4], 333.3 nM	–	0.477
[4], 1000 nM	–	0.297
[4], 3000 nM	–	0.261
[5], 4.1 nM	–	0.885
[5], 12.3 nM	–	0.873
[5], 37 nM	–	0.815
[5], 111.1 nM	–	0.616
[5], 333.3 nM	–	0.562
[5], 1000 nM	–	0.584
[5], 3000 nM	–	0.414
[6], 4.1 nM	–	0.723
[6], 12.3 nM	–	0.694
[6], 37 nM	–	0.546
[6], 111.1 nM	–	0.511
[6], 333.3 nM	–	0.322
[6], 1000 nM	–	0.323
[6], 3000 nM	–	0.227
[7], 4.1 nM	–	0.912
[7], 12.3 nM	–	0.753
[7], 37 nM	–	0.87
[7], 111.1 nM	–	0.918
[7], 333.3 nM	–	0.691
[7], 1000 nM	–	0.723
[7], 3000 nM	–	0.633
[8], 4.1 nM	1.33	–
[8], 12.3 nM	5.02	–
[8], 37 nM	1.69	–
[8], 111.1 nM	1.77	–
[8], 333.3 nM	3.18	–
[8], 1000 nM	3.1	–
[8], 3000 nM	4.48	–
[9], 4.1 nM	1.69	–
[9], 12.3 nM	1.77	–
[9], 37 nM	2.65	–
[9], 111.1 nM	3.3	–
[9], 333.3 nM	5.28	–
[9], 1000 nM	4.65	–
[9], 3000 nM	3.46	–
[10], 4.1 nM	0.801	–
[10], 12.3 nM	0.904	–
[10], 37 nM	0.979	–
[10], 111.1 nM	1.14	–
[10], 333.3 nM	1.17	–
[10], 1000 nM	1.95	–
[10], 3000 nM	2.12	–
[11], 4.1 nM	0.95	–
[11], 12.3 nM	0.932	–
[11], 37 nM	1.32	–
[11], 111.1 nM	1.7	–
[11], 333.3 nM	2.21	–
[11], 1000 nM	2.11	–
[11], 3000 nM	3	–
[12], 4.1 nM	1.3	–
[12], 12.3 nM	0.758	–
[12], 37 nM	0.919	–
[12], 111.1 nM	1.49	–
[12], 333.3 nM	1.35	–
[12], 1000 nM	2.05	–
[12], 3000 nM	3.12	–
[13], 4.1 nM	1.49	–
[13], 12.3 nM	1.61	–
[13], 37 nM	2.55	–
[13], 111.1 nM	2.56	–
[13], 333.3 nM	4.4	–
[13], 1000 nM	4.89	–
[13], 3000 nM	4.79	–
[14], 4.1 nM	0.852	–
[14], 12.3 nM	0.622	–
[14], 37 nM	1.06	–
[14], 111.1 nM	1.36	–
[14], 333.3 nM	5.19	–
[14], 1000 nM	1.49	–
[14], 3000 nM	1.95	–

Nc1ccn([C@@H]2O[C@H](CO)[C@@H](O)[C@@H]2O)c(=O)n1 [Cytarabine]
Settings	phenotypic distance	surviving fraction
[1], 4.1 nM	–	0.893
[1], 12.3 nM	–	0.843
[1], 37 nM	–	0.673
[1], 111.1 nM	–	0.645
[1], 333.3 nM	–	0.42
[1], 1000 nM	–	0.448
[1], 3000 nM	–	0.389
[2], 4.1 nM	–	0.787
[2], 12.3 nM	–	0.77
[2], 37 nM	–	0.649
[2], 111.1 nM	–	0.533
[2], 333.3 nM	–	0.339
[2], 1000 nM	–	0.236
[2], 3000 nM	–	0.154
[3], 4.1 nM	–	0.778
[3], 12.3 nM	–	0.775
[3], 37 nM	–	0.542
[3], 111.1 nM	–	0.586
[3], 333.3 nM	–	0.474
[3], 1000 nM	–	0.511
[3], 3000 nM	–	0.333
[4], 4.1 nM	–	0.861
[4], 12.3 nM	–	0.637
[4], 37 nM	–	0.463
[4], 111.1 nM	–	0.312
[4], 333.3 nM	–	0.149
[4], 1000 nM	–	0.127
[4], 3000 nM	–	0.126
[5], 4.1 nM	–	0.892
[5], 12.3 nM	–	0.803
[5], 37 nM	–	0.723
[5], 111.1 nM	–	0.687
[5], 333.3 nM	–	0.555
[5], 1000 nM	–	0.514
[5], 3000 nM	–	0.466
[6], 4.1 nM	–	0.687
[6], 12.3 nM	–	0.62
[6], 37 nM	–	0.443
[6], 111.1 nM	–	0.316
[6], 333.3 nM	–	0.179
[6], 1000 nM	–	0.179
[6], 3000 nM	–	0.161
[7], 4.1 nM	–	0.758
[7], 12.3 nM	–	0.684
[7], 37 nM	–	0.654
[7], 111.1 nM	–	0.753
[7], 333.3 nM	–	0.684
[7], 1000 nM	–	0.553
[7], 3000 nM	–	0.62
[8], 4.1 nM	0.95	–
[8], 12.3 nM	1.36	–
[8], 37 nM	1.77	–
[8], 111.1 nM	2.69	–
[8], 333.3 nM	4.49	–
[8], 1000 nM	4.63	–
[8], 3000 nM	4.85	–
[9], 4.1 nM	1.63	–
[9], 12.3 nM	2.01	–
[9], 37 nM	2.73	–
[9], 111.1 nM	3.44	–
[9], 333.3 nM	4.54	–
[9], 1000 nM	4.75	–
[9], 3000 nM	5.65	–
[10], 4.1 nM	1.71	–
[10], 12.3 nM	1.24	–
[10], 37 nM	1.72	–
[10], 111.1 nM	2.6	–
[10], 333.3 nM	2.45	–
[10], 1000 nM	2.47	–
[10], 3000 nM	3.27	–
[11], 4.1 nM	1.02	–
[11], 12.3 nM	1.8	–
[11], 37 nM	1.75	–
[11], 111.1 nM	3.19	–
[11], 333.3 nM	3.48	–
[11], 1000 nM	3.7	–
[11], 3000 nM	4.49	–
[12], 4.1 nM	1.44	–
[12], 12.3 nM	1.82	–
[12], 37 nM	2.13	–
[12], 111.1 nM	3.16	–
[12], 333.3 nM	3.2	–
[12], 1000 nM	3.33	–
[12], 3000 nM	3.62	–
[13], 4.1 nM	2.41	–
[13], 12.3 nM	3.28	–
[13], 37 nM	4.72	–
[13], 111.1 nM	6.26	–
[13], 333.3 nM	7.13	–
[13], 1000 nM	6.77	–
[13], 3000 nM	6.62	–
[14], 4.1 nM	1.13	–
[14], 12.3 nM	1.74	–
[14], 37 nM	1.5	–
[14], 111.1 nM	1.8	–
[14], 333.3 nM	2.13	–
[14], 1000 nM	1.94	–
[14], 3000 nM	1.69	–
